Target: T1, KEAP1 (Homo sapiens, UniProt Q14145)
T1 construct: recombinant KEAP1 protein (Sino Biological No. 11981-HNCB)
Test: SPR (Biacore X100, immobilized recombinant KEAP1); supported by CETSA-WB in MCF-7 lysate
Format: binding

T1 sequence (Q14145 whole entry): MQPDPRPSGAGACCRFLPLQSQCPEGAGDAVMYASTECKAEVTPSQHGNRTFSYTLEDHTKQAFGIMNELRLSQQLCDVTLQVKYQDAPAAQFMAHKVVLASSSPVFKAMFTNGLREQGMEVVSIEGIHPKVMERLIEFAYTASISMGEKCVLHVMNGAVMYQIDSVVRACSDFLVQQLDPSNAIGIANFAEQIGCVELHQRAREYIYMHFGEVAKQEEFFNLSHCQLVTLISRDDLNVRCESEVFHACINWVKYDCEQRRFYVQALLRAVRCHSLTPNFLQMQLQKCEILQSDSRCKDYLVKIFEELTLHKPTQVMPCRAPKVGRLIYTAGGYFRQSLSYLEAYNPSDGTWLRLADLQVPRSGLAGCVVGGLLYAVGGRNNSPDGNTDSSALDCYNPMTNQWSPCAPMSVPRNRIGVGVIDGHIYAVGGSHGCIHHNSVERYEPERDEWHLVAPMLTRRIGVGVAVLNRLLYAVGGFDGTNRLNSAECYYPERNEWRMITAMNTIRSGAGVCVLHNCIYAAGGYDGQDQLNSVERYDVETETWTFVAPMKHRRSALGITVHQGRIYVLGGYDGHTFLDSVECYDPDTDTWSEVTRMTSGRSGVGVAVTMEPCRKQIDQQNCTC

Structure (SMILES): O=c1cc(-c2ccccc2)oc2cc(O)c(O)c(O)c12 [Baicalein]
- Kd: 158 µM
